Results reported in BindingDB's records for doi:10.1016/0922-4106(94)90227-5 (Novo Nordisk, 1994).

Assays:
[1] = target: Metabotropic glutamate receptor 1 (Rattus norvegicus, UniProt P23385)
[2] = target: Metabotropic glutamate receptor 2 (Homo sapiens, UniProt Q14416)
[3] = target: Glutamate receptor ionotropic, NMDA 1 (Rattus norvegicus, UniProt P35439)
[4] = target: Glutamate receptor ionotropic, kainate 1 (Rattus norvegicus, UniProt P22756)
[5] = target: Metabotropic glutamate receptor 4 (Rattus norvegicus, UniProt P31423)
Sequence of Metabotropic glutamate receptor 4 (P31423 whole entry): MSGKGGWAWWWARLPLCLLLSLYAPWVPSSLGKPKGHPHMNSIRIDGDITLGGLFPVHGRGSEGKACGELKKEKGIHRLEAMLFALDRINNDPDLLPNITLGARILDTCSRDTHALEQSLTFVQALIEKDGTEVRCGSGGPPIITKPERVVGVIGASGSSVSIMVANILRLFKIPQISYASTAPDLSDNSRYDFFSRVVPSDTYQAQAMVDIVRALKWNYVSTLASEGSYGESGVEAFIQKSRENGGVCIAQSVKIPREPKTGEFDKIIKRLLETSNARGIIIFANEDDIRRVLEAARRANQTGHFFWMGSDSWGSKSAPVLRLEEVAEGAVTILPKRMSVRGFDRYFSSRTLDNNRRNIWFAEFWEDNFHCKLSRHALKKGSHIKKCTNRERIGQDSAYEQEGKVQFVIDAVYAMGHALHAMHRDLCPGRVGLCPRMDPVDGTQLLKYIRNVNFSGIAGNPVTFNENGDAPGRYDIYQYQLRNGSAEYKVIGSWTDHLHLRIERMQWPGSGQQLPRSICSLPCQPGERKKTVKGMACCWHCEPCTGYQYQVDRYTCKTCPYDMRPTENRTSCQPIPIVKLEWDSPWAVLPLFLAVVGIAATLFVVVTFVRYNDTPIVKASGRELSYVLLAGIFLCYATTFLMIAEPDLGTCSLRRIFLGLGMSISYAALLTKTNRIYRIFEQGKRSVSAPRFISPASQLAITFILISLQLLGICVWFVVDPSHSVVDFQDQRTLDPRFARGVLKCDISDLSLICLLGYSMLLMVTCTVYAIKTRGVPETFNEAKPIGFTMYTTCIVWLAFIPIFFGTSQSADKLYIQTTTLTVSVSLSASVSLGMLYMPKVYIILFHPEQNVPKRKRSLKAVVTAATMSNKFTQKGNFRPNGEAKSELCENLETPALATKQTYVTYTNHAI

Glutamate receptor 3 = Glutamate receptor 3 (Rattus norvegicus, UniProt P19492)
Sequence of Glutamate receptor 3 (P19492 whole entry): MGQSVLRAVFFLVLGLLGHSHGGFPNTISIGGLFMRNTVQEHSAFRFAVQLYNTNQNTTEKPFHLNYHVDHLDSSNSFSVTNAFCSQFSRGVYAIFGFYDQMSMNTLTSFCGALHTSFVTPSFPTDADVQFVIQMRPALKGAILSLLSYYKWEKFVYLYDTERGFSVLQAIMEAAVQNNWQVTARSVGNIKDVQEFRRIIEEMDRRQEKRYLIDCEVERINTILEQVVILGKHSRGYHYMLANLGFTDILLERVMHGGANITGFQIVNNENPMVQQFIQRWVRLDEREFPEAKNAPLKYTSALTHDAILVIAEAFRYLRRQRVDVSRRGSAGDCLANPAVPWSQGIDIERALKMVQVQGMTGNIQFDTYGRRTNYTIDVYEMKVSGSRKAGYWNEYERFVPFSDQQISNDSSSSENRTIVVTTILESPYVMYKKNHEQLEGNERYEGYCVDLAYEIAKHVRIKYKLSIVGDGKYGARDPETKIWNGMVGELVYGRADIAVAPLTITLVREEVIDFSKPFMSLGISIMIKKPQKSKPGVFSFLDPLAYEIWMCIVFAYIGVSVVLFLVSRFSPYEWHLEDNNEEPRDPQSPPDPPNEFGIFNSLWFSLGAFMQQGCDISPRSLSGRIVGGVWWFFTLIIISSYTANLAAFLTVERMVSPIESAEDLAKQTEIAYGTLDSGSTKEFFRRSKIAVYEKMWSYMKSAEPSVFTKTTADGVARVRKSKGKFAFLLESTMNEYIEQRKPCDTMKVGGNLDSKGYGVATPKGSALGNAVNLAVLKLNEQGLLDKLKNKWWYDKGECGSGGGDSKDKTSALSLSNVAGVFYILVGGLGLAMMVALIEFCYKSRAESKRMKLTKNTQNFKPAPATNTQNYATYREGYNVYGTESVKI

Sequence of Metabotropic glutamate receptor 1 (P23385 whole entry): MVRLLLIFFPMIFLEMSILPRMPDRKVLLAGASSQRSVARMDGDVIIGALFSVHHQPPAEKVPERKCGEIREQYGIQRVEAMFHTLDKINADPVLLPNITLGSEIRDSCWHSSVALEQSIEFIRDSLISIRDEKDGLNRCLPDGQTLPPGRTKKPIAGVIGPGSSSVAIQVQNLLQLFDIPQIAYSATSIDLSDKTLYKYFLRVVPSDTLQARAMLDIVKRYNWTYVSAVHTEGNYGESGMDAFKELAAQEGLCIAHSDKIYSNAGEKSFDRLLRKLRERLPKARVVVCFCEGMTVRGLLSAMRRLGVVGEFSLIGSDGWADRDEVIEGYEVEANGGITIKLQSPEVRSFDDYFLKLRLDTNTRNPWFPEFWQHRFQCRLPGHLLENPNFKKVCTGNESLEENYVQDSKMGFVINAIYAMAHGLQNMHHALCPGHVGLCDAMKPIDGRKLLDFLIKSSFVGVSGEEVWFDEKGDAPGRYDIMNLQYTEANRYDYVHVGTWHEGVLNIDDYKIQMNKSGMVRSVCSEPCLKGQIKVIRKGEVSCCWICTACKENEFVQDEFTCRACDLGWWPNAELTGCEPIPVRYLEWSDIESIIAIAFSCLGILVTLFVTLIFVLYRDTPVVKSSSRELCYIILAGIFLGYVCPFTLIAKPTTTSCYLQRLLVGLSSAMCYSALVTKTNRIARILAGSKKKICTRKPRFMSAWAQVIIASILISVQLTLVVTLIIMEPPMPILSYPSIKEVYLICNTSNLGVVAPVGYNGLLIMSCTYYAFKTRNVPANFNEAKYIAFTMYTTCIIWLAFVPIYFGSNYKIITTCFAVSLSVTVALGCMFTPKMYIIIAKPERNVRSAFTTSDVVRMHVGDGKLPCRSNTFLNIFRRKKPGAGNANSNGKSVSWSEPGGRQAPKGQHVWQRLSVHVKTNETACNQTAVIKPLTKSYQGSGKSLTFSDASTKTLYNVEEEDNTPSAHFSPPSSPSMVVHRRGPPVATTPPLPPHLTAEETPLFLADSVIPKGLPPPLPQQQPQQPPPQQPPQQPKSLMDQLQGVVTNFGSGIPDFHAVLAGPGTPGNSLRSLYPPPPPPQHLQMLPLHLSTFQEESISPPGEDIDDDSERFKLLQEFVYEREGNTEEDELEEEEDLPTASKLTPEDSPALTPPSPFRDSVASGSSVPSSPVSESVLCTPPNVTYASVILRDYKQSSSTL
Sequence of Metabotropic glutamate receptor 2 (Q14416 whole entry): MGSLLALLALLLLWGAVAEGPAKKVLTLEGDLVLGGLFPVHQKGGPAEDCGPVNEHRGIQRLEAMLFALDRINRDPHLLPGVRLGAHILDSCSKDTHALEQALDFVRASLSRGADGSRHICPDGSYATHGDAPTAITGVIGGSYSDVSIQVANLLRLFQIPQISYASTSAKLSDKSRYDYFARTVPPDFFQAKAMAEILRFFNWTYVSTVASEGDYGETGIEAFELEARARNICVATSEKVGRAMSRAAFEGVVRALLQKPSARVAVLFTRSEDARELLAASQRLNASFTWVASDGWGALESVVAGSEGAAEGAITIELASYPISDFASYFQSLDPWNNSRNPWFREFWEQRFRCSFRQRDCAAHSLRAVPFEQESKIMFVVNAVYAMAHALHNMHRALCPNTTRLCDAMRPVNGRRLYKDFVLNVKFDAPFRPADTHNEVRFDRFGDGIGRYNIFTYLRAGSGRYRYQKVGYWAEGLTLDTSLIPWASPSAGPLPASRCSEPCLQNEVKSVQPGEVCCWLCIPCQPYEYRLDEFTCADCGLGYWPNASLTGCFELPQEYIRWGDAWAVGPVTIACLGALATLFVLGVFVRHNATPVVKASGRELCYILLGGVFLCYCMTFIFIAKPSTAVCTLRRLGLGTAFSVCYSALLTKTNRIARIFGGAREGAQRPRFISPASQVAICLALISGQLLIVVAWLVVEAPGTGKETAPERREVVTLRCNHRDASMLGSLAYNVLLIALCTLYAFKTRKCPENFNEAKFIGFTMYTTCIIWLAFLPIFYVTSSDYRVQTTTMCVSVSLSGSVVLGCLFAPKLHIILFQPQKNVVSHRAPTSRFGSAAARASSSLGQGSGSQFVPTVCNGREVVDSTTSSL
Sequence of Glutamate receptor ionotropic, kainate 1 (P22756 whole entry): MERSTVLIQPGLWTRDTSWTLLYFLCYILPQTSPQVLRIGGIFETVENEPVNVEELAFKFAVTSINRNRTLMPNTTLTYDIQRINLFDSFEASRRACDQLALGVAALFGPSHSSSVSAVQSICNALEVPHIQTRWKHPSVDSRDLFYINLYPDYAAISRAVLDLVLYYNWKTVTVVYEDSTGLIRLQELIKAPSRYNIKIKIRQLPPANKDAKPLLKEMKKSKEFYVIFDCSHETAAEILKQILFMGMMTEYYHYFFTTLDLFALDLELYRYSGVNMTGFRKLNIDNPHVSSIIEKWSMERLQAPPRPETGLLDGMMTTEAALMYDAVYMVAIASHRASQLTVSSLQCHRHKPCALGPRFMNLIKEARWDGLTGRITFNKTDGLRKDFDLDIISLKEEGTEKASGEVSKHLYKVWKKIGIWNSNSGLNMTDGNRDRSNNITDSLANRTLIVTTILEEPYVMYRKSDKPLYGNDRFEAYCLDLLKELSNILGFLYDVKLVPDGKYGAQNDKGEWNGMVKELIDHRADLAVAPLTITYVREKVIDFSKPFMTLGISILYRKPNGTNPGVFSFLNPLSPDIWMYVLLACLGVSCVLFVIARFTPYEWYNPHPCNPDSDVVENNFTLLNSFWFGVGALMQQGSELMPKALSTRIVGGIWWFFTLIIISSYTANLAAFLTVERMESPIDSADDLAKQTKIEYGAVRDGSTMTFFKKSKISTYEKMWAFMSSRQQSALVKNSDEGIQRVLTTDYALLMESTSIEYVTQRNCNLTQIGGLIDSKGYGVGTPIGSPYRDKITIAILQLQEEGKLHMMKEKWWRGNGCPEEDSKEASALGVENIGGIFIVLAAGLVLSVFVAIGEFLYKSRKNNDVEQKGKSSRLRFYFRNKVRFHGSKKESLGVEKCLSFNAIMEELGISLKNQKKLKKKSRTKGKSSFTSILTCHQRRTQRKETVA

| Ki [1] | Ki [2] | Ki [3] | Ki [4] | Ki [5] | Ki (Glutamate receptor 3) | Structure (SMILES) |
| --- | --- | --- | --- | --- | --- | --- |
| > 10 µM | > 10 µM | > 10 µM | > 10 µM | > 10 µM | > 10 µM | N[C@H](C(=O)O)c1cccc(O)c1 [(S)-3-Hydroxyphenylglycine] |
| > 10 µM | > 10 µM | > 10 µM | > 10 µM | > 10 µM | > 10 µM | N[C@@H](C(=O)O)c1cccc(O)c1 [(R)-3-Hydroxyphenylglyci] |
| > 10 µM | > 10 µM | > 10 µM | > 10 µM | > 10 µM | > 10 µM | N[C@H](C(=O)O)c1ccc(O)c(C(=O)O)c1 [3C4HPG] |

The remaining lines, values behind:

| Structure (SMILES) | Ki [1] | Ki [2] | Ki [3] | Ki [4] | Ki [5] | Ki (Glutamate receptor 3) |
| --- | --- | --- | --- | --- | --- | --- |
| N[C@@H](C(=O)O)c1ccc(O)c(C(=O)O)c1 [CB7394016] | > 10 µM | > 10 µM | > 10 µM | > 10 µM | > 10 µM | – |
| N[C@H](C(=O)O)c1ccc(C(=O)O)cc1 [4-((S)-Amino-carboxy-methyl)-benzoic acid] | > 10 µM | > 10 µM | > 10 µM | > 10 µM | > 10 µM | > 10 µM |
| C[C@@](N)(C(=O)O)c1ccc(C(=O)O)cc1 (racemic) | > 10 µM | > 10 µM | > 10 µM | > 10 µM | > 10 µM | > 10 µM |
| N[C@@H](C(=O)O)c1ccc(C(=O)O)cc1 [(S)-4CPG] | > 10 µM | > 10 µM | > 10 µM | > 10 µM | > 10 µM | > 10 µM |
| NC(C(=O)O)c1ccc(C(=O)O)cc1 (centres undefined) [4-(Amino-carboxy-methyl)-benzoic acid] | > 10 µM | > 10 µM | – | – | > 10 µM | – |
